Measured values published in article PMC10208956, “Microbial peptides activate tumour-infiltrating lymphocytes in glioblastoma” (Nature, 2023).
Read-outs that look alike come from different tables or passages of the source.

Tests used:
[1] = tested on: bulk TILs (patient 1635WI); test: Cytokine and chemokine secretion of bulk TILs stimulated with IPdBPs; type: cell-based, human; design: key to CD40 Ligand / Flt-3 Ligand / GM-CSF / Granzyme B / IFN-α / IFN-γ / IL-1rα / IL-1α / IL-1β / IL-2 / IL-3 / IL-4 / IL-5 / IL-6 / IL-7 / IL-10 / IL-12p70 / IL-13 / IL-15 / IL-17A / IL-33 / TNF-α / RANTES: pg/mL, negative-control amount subtracted; CXCL2/GROβ / CXCL10/IP-10 / CCL2/MCP-1 / CCL3/MIP-1α / CCL4/MIP-1β: unit not given beside the values; conditions: secretion by bulk TILs after peptide stimulation; sheet 1e
Source text: Fig. 1 Elution of HLA class II-presented bacterial peptides from 19 glioblastomas and the stimulatory effect of IPdBPs on bulk TILs. a, Schematic of the immunopeptidome analyses of glioblastoma tissue, from which eluted peptides were annotated using the UniProt bacteria database (1). TILs or peripheral memory T cells were stimulated with IPdBPs (2 and 3). LC–MS, liquid chromatography–mass spectrometry; PBMC, peripheral blood mononuclear cell. The images in panel a were created using BioRender (https://biorender.com). b, Number of unique IPdBPs in patients with glioblastoma (n = 19) (data from patient 1635WI contains both primary and recurrent tumours together), with 344 unique IPdBPs identified (left). These peptides originated from 255 and 199 unique proteins and bacteria, respectively (3 technical replicates). […] As a control, peptidome data were also annotated using human protein database to identify eluted self-peptides. As shown, most of HLA class II-bound peptides are self-(human) peptides. IPdBPs of primary (bottom left, n = 18) and recurrent (bottom right, n = 23) tumours were separately annotated to their source bacteria at the phylum level. d, Bulk TILs (patient 1635WI) were stimulated with IPdBPs (See Supplementary Table 8), each in five replicate wells, and proliferation was measured after 5 days via ^3H-thymidine incorporation. […] The data are expressed as the mean value of all wells ± s.e.m. SIN3A* peptide was used as a positive control as TILs recognize this tumour antigen. T cells with APCs without any stimuli were used as a negative control. e, Heatmap of cytokine and chemokine secretion of TILs stimulated with three IPdBPs, which weakly stimulated proliferation. The secretion of each cytokine and chemokine was calculated by subtracting the corresponding cytokine and chemokine amount (pg ml^−1) of the negative control. TILs with APCs without any stimuli were used as a negative control. Also see Extended Data Fig. 1. Source data
Supernatants from each experiment were harvested a day before adding thymidine and frozen at −20 °C. Cytokines were measured using ELISA for human IFNγ ELISA MAX (BioLegend), human GM-CSF DuoSet ELISA (R&D Systems) and bead-based assays. A Synergy H1 hybrid multi-mode reader (Agilent) was used to measure the absorbance. The LEGENDplex Multi-analyte Flow Assay kit (BioLegend) is a 13-plex human TH cytokine panel, which includes IFNγ, TNF, IL-2, IL-4, IL-5, IL-6, IL-9, IL-10, IL-13, IL-17A, IL-17F, IL-21 and IL-22. […] LSR Fortessa Flow Cytometer (BD Biosciences) was used to measure cytokines, and data were analysed using FlowJo (Tree Star). The Human XL Cytokine Luminex Performance Assay Fixed Panel (R&D Systems) contains 45 analytes covering a broad range of various chemokines and cytokines.

[2] = tested on: TCC75; test: Cytokine/chemokine secretion of TCC75; type: cell-based, human; design: IL-1α / IL-1β / IL-2 / IL-3 / IL-4 / IL-5 / IL-6 / IL-7 / IL-10 / IL-13 / IL-15 / IL-17A / IL-33 / TNF-α: unit not given here; conditions: TCC75, sheet e
[3] = tested on: bacteria/microbiota-reactive CFSEdim CD4+ TILs; test: Proliferation of expanded CFSEdim CD4+ TILs that responded to the bacteria/microbiota peptide pool; type: cell-based, human; conditions: 5 days; 4 replicate wells; Fig. 4d
[4] = tested on: TCC88; conditions: for Proliferation (SI), peptide dose titration: sheet f

Ac-QPVEFNHAIHYVN-NH2 [SIN3A*]
CCL2/MCP-1 [1]: 2816.44 | CCL3/MIP-1α [1]: 29.38 | CCL4/MIP-1β [1]: 288.41 | CCL11/Eotaxin [1]: 0 | CCL19/MIP-3β [1]: 3.84 | CCL20/MIP-3α [1]: 5.69 | CD40 Ligand [1]: 1225.7 | CXCL1/GROα [1]: 401.05 | CXCL2/GROβ [1]: 208.21 | CXCL8/IL-8 [1]: 3621.56 | CXCL10/IP-10 [1]: 192.55 | Flt-3 Ligand [1]: 87.97 | GM-CSF [1]: 322.89 | Granzyme B [1]: 136.59 | IFN-α [1]: 1.52 | IFN-γ [1]: 41.34 | IL-1rα [1]: 1593.54 | IL-1α [1]: 6.01 | IL-1β [1]: 5.99 | IL-2 [1]: 5.92 | IL-3 [1]: 55.24 | IL-4 [1]: 3.08 | IL-5 [1]: 16.46 | IL-6 [1]: 23.1 | IL-7 [1]: 0.95 | IL-10 [1]: 62.69 | IL-12p70 [1]: 0 | IL-13 [1]: 67.23 | IL-15 [1]: 2.11 | IL-17A [1]: 2.07 | IL-17E/IL-25 [1]: 0 | IL-33 [1]: 6.61 | RANTES [1]: 135 | TNF-α [1]: 366.07 | CCL2/MCP-1 [2]: 15.01 | CCL3/MIP-1α [2]: 1946.52 | CCL4/MIP-1β [2]: 6778.88 | CCL11/Eotaxin [2]: 4.69 | CCL19/MIP-3β [2]: 3.33 | CCL20/MIP-3α [2]: 6.39 | CD40 Ligand [2]: 608.52 | CXCL1/GROα [2]: 9.62 | CXCL2/GROβ [2]: 35.12 | CXCL8/IL-8 [2]: 0 | CXCL10/IP-10 [2]: 40.51 | Flt-3 Ligand [2]: 43.9 | Fractalkine [2]: 194.12 | GM-CSF [2]: 3130.41 | Granzyme B [2]: 1085.42 | IFN-α [2]: 4.79 | IFN-γ [2]: 479.21 | IL-1rα [2]: 0 | IL-1α [2]: 6.12 | IL-1β [2]: 7.45 | IL-2 [2]: 555.39 | IL-3 [2]: 138.37 | IL-4 [2]: 73.09 | IL-5 [2]: 13.91 | IL-6 [2]: 139.59 | IL-7 [2]: 1.11 | IL-10 [2]: 887.25 | IL-12p70 [2]: 22.92 | IL-13 [2]: 233.15 | IL-15 [2]: 1.05 | IL-17A [2]: 0.99 | IL-17E/IL-25 [2]: 3.22 | IL-33 [2]: 3.72 | RANTES [2]: 1598.25 | TNF-α [2]: 5169.38 | recognition by CD4+ TILs pre-stimulated with the bacteria/microbiota peptide pool, by proliferation and/or GM-CSF secretion (in words) [3]: recognized | SI: TCC88 ([4]; 3 h): 20.6 | Proliferation (SI), peptide dose titration ([4]; peptide concentration 10-1 (unit not given), replicate 1): 42.2997 | Proliferation (SI), peptide dose titration ([4]; peptide concentration 10-1 (unit not given), replicate 2): 45.1904 | Proliferation (SI), peptide dose titration ([4]; peptide concentration 10-1 (unit not given), replicate 3): 49.4521 | Proliferation (SI), peptide dose titration ([4]; peptide concentration 10-2 (unit not given), replicate 1): 1.135 | Proliferation (SI), peptide dose titration ([4]; peptide concentration 10-2 (unit not given), replicate 2): 0.9523 | Proliferation (SI), peptide dose titration ([4]; peptide concentration 10-2 (unit not given), replicate 3): 1.168 | Proliferation (SI), peptide dose titration ([4]; peptide concentration 10-3 (unit not given), replicate 1): 0.8172 | Proliferation (SI), peptide dose titration ([4]; peptide concentration 10-3 (unit not given), replicate 2): 0.7497 | Proliferation (SI), peptide dose titration ([4]; peptide concentration 10-3 (unit not given), replicate 3): 0.8105 | Proliferation (SI), peptide dose titration ([4]; peptide concentration printed 10, fifth line r7 (unit not printed), replicate 1): 28.2921 | Proliferation (SI), peptide dose titration ([4]; peptide concentration printed 10, fifth line r7 (unit not printed), replicate 2): 32.0878 | Proliferation (SI), peptide dose titration ([4]; peptide concentration printed 10, fifth line r7 (unit not printed), replicate 3): 32.0203 | Proliferation (SI), peptide dose titration ([4]; peptide concentration printed 10, fourth line r6 (unit not printed), replicate 1): 44.2381 | Proliferation (SI), peptide dose titration ([4]; peptide concentration printed 10, fourth line r6 (unit not printed), replicate 2): 56.0371 | Proliferation (SI), peptide dose titration ([4]; peptide concentration printed 10, fourth line r6 (unit not printed), replicate 3): 57.6243
